In patent US20190256827A1, “EPIGENOME EDITING SYSTEMS AND METHODS” (STC.UNM, priority 2017, published 2019):

Columns and labels:
[1] = tested on: IL1RN locus in HEK293T cells; experiment: ChIP-qPCR of FLAG-ABI-P300 and H3K27Ac at the IL1RN locus (dCas9-PYL-HA, FLAG-ABI-P300, IL1RN sgRNAs); format: cell-based, human
Experimental: To examine the recruitment of FLAG-ABI-P300, HEK293T cells were co-transfected with IL1RN sgRNAs, dCas9-PYL-HA and FLAG-ABI-P300 plasmids for 24 hours. Cells were then either treated or not treated with 100 μM ABA for another 24 hours before being harvested. Portions of the cell lysates were analyzed by using ChIP (with anti-FLAG antibody) and qPCR assays to quantify the level of FLAG-ABI-P300. […] To determine if the level of H3K27Ac changes in response to the FLAG-ABI-P300 localization, portions of the cell lysates produced in the above experiment were subjected to ChIP (using anti-H3K27Ac antibody) and qPCR assays to quantify the H3K27Ac enrichment.
Human embryonic kidney cell HEK293T (American Type Culture Collection, Manassas, Va.) was cultured in Dulbecco's modified Eagle's medium (DMEM) (Gibco) with 10% FBS (Atlanta Biologicals), 1× GlutaMax (Gibco, Thermo Fisher Scientific, Inc., Waltham, Mass.), and 1× penicillin/streptomycin (Pen/Strep; Gibco, Thermo Fisher Scientific, Inc., Waltham, Mass.). Cells (100,000/ml) were plated in 24-well or 10-cm cell culture plate the day before transfection. For each well of 24-well plate transfection, 500 ng of dCas9-PYL-HA, 420 ng of FLAG-ABI-P300, and a total amount of 200-ng mix of gRNAs, with a 50-ng per each gRNA, were mixed with 50×(v/w) Opti-MEM (Gibco, Thermo Fisher Scientific, Inc., Waltham, Mass.), then incubate with the same volume of 3 μg PEI-Opti-MEM solution for 20 minutes at room temperature. Then, 100 μL of PEI-combined plasmids were added to every single well of 24-well plate and cultured for 24 hours before experiments were performed. For a 10 cm plate, 1 mL of PEI-combined plasmids were needed. After six hours transfection, cells were washed and incubated for another 1-72 hours before experiments were performed.
ChIP protocol was optimized from the method in Molecular Cloning, Fourth edition (Cold Spring Harbor Laboratory Press, 2012). In brief, cells cultured in a 10-cm plate were fixed with 1 mL of cross-linking buffer (0.1 M NaCl, 1 mM EDTA, 0.5 mM EGTA, 50 mM HEPES and 11% formaldehyde), and shaken in room temperature for 15 minutes. Then 1.1 mL of 1.25 M glycine was added to the solution to stop crosslinking. After washing three times in ice cold PBS, cells were scraped and suspended in 10 mL of lysis buffer (50 mM HEPES, 140 mM NaCl, 1 mM EDTA, 10% Glycerol, 0.5% NP40, 0.25% Triton X-100), and rocked at 4° C. for 10 minutes. Cells were centrifuged at 1,000×g for 10 minutes and were resuspended in protein extraction buffer (200 mM NaCl, 1 mM EDTA, 0.5 mM EGTA, 10 mM Tris). Nuclei were pelleted by centrifuging at 1,000×g for 15 minutes at 4° C., resuspended in 2 mL of chromatin extraction buffer (1 mM EDTA, 0.5 mM EGTA, 10 mM Tris), and divided into six sonication tubes. Then, the samples were sonicated for 24 cycles at a 30 seconds on/30 seconds off protocol. Then samples were moved to a new centrifuge tube and insoluble debris were removed by centrifuge at 2,000×g for 20 minutes at 4° C. 10% volume of samples were stored at −80° C. as 10% input control. […] Then, sample-bound beads were washed eight times with RIPA buffer (50 mM HEPES, 1 mM EDTA, 1% NP40, 0.7% DOC, 0.5 M LiCl, 1× protease inhibitor complete cocktail), and finally re-suspended in TE (pH 8.0) buffer to wash. Then TE buffer was removed completely, 50 μL of elution buffer (10 mM Tris, 1 mM EDTA, 1% SDS) was added and the samples were incubated for 10 minutes at 65° C. and rocked every two minutes. The liquid was collected, 120 μL of elution buffer was added, and the samples were incubated at 65° C. overnight. Samples of 10% input were incubated with […] elution buffer at 65° C. overnight, too. To remove histones, washing buffer (140 μL of TE buffer, 3 μL of 20 mg/ml glycogen and 7 μL of 10 mg/ml Proteinase K) was added and incubated two hours at 37° C. Then ChIP samples were purified with phenol:chloroform:isoamyl alcohol (25:24:1) twice, then purified aqueous in chloroform. […]

[2] = tested on: HBA mRNA in HEK293T cells; experiment: qPCR of HBA mRNA levels; format: cell-based, human; conditions: HBA sgRNAs; ABA vs DMSO
Experimental: To determine if the new method can be used to modify H3K27Ac at other gene loci, sgRNAs were designed that target the promoter region of other genes with low expression levels in HEK293T cells, including GRM2, HBA and MYOD1 (Table 1).
Human embryonic kidney cell HEK293T (American Type Culture Collection, Manassas, Va.) was cultured in Dulbecco's modified Eagle's medium (DMEM) (Gibco) with 10% FBS (Atlanta Biologicals), 1× GlutaMax (Gibco, Thermo Fisher Scientific, Inc., Waltham, Mass.), and 1× penicillin/streptomycin (Pen/Strep; Gibco, Thermo Fisher Scientific, Inc., Waltham, Mass.). Cells (100,000/ml) were plated in 24-well or 10-cm cell culture plate the day before transfection. […]
Total RNA was extracted using the EZNA Total RNA Kit I (Omega Bio-tek, Inc., Norcross, Ga.). qPCR reactions were performed on cDNA prepared from 1,000 ng of total cellular RNA using the High-Capacity cDNA Reverse Transcription Kit (Applied Biosystems Co., Thermo Fisher Scientific, Inc., Foster City, Calif.). […] Data were analyzed using the SDS software, version 2.4 (Applied Biosystems Co., Thermo Fisher Scientific, Inc., Foster City, Calif.), by the ΔΔCt method: the Ct values of target gene were normalized to Ct values of GAPDH, the folds of target gene expression changes were normalized to experimental controls. Analyzed data are reported as the mean±s.e.m. for biological replicates. […]

[3] = IL1RN locus, time course after ABA addition

CC1=CC(=O)CC(C)(C)[C@@]1(O)/C=C/C(C)=C\C(=O)O [ABA, abscisic acid]
FLAG-ABI-P300 level at the IL1RN locus ([1]; 100 μM ABA for 24 hours vs not treated, anti-FLAG ChIP): increase in FLAG-ABI-P300 level
H3K27Ac levels at the IL1RN locus ([1]; 24 h after ABA addition (100 μM) vs not treated, anti-H3K27Ac ChIP): H3K27Ac levels increase
stability of H3K27Ac at the IL1RN locus after ABA removal ([1]; ABA for 12, 24 or 48 hours, then washed): the longer cells were treated with ABA, the slower H3K27Ac was removed after washing
FLAG-ABI-P300 level at the IL1RN locus after washing to remove ABA ([1]; ABA for 12, 24 or 48 hours, then washed with non-ABA media): rapidly decreases to a near background level within one hour following washing
time at which the level of H3K27Ac begins to rise [1, 3]: one hour after ABA addition
time until which H3K27Ac continues to increase [1, 3]: 48 h
time at which FLAG-ABI-P300 reaches a maximal level at the IL1RN locus ([1]; time course after ABA addition): 12 h
time of FLAG-ABI-P300 recruitment to the IL1RN locus after ABA addition ([1]; time course after ABA addition): Within one hour
level of HBA mRNA [2]: increases correspondingly
